Data reported in ChEMBL document CHEMBL1144273, “Synthesis and SAR studies of 3-phenoxypropyl piperidine analogues as ORL1 (NOP) receptor agonists” (Bioorg Med Chem Lett, 2005).

Tested on: Mus musculus
Experiment: In vivo effective dose against mouse formalin paw after intravenous administration of the compound
Type: functional

## COc1ccc(C)c(OC(CCN2CCC(n3c(=O)[nH]c4ccccc43)CC2)C(C)C)c1 (stereo unspecified) [ORGANON]
  ED50: 1.07 µmol/kg
